Source: patent US8901317B2, “Tryptamine derivatives, their preparation and their use in gastropathy” (Council of Scientific & Industrial Research, priority 2010, dated 2014)

How the values were obtained:
[1] = system: intra mitochondrial superoxide; assay: Intra mitochondrial superoxide (MitoSOX); type: cell-based, rat; settings: indomethacin-treated cultured gastric mucosal cells; pretreatment
Protocol: Isolated mucosal cells from both control and indomethacin-treated cultured gastric mucosa were used for detection of intra mitochondrial superoxide using MitoSOX, an superoxide-sensitive fluorescence probe following the protocol as described in the product catalogue (Maity, P.; et al. J. Biol. Chem. 284:3058-3068; 2009). Cells were stained with the respective fluorescent probe in HB SS (pH 7.4) and incubated for 15 min at 37° C. in the dark as described in the manufacture's protocols. After the incubation, cells were washed with HBSS three times and continued for fluorescence microscopy (Leica, DM-2500, Leica Microsystems). Staining of MitoSOX was visualized using Red filter.

[2] = system: gastric mucosal cells; assay: TUNEL assay of gastric mucosa in vivo; parameters: species or system rats
[3] = system: Ethanol-induced gastric mucosal injury; assay: Ethanol-induced gastric mucosal injury; type: in vivo, Sprague-Dwaley rats; settings: 1 ml of 50% ethanol oral; rats
[4] = system: indomethacin-induced gastric mucosal damage; assay: Indomethacin-induced gastric mucosal damage (ulcer index, histology); type: in vivo, Sprague-Dwaley rats
Protocol: Sprague-Dwaley rats (180-220 gm) were used for this study. Each group (control or experimental) of animals was maintained at 24±2° C. with 12 hrs lights and dark cycle. The animals were fasted for 24 hrs before the start of experiments. They were provided with water ad libitum to avoid food-induced increased acid secretion and its effect on gastric lesions. Gastric mucosal ulcer was developed by indomethacin as described (Pal, C; et al. Free Radic Biol Med, 49(2), 258-267; 2010, Biswas, K.; et al. J. Biol. Chem. 278:10993-11001; 2003, Bandyopadhyay, U.; et al. Life Sci. 71:2845-2865; 2002). Briefly, all the animals were divided into control, indomethacin and test compound group. Oral administration of indomethacin at a dose of 48 mg kg^−1 b.w was given to the fasted animals to induce gastric ulcer. […] Control group received vehicle only but no indomethacin. After 4 hrs of indomethacin treatment, the animals were sacrificed under proper euthanasia and stomachs were collected. The mucosal injury was scored as ulcer index as follows: 0=no pathology; 1=one pinhead ulcer. The sum of the total scores divided by the number of animals gave the ulcer index. All the in vivo studies were done in accordance with the institute animal ethical committee guidelines. To see the effect of SEGA on diclofenac induced gastric mucosal injury, gastric mucosal damage was developed by the oral administration of diclofenac (75 mg kg^−1) and the rest of the experiment was carried out in a similar way as described for indomethacin. Diclofenac produced pinhead ulcer like indomethacin and the mucosal injury was scored as ulcer index as described above. Ethanol-induced gastric mucosal injury was developed with oral administration of 1 ml of 50% ethanol (Banerjee, R. K. (2002) Life Sci 71, 2845-2865) and after 4 hrs the animals were sacrificed and cold-restrain stress induced mucosal injury was developed by immobilizing the animals at 4° C. for 3.5 hrs (Banerjee, R. K. (2002) Life Sci 71, 2845-2865, (2003) J Biol Chem 278, 10993-11001).
Stomach tissues from the animals of different groups were washed first washed several times with PBS (pH 7.4) and later fixed in 10% buffered formalin for 12 hrs at 25° C. The formalin-fixed tissues were then dehydrated and embedded in paraffin for preparing semi-thin sections (Maity, P.; et al. J. Biol. Chem. 283:14391-14401; 2008). The semi-thin sections were prepared using a microtome and taken over poly-L-lysine coated glass slide for hematoxylene-eosine staining. The stained sections were observed under microscope (Leica DM-2500, Germany) and were documented by high-resolution digital camera.

[5] = system: free iron; assay: Free iron (Phen Green SK); type: cell-based, rat; settings: in vitro cultured cell
Protocol: Isolated mucosal cells from both control and indomethacin-treated cultured gastric mucosa were used for free iron localization using Phen Green SK, an iron-sensitive fluorescence probe following the protocol as described in the product catalogue (Maity, P.; et al. J. Biol. Chem. 284:3058-3068; 2009). Cells were first incubated with Phen Green SK (20 μm) for 15 min at 37° C. in the dark. After the incubation, cells were washed with HBSS and used for fluorescence microscopy (Leica, DM-2500, Leica Microsystems). Staining of pheen Green SK was visualized using green filter.

[6] = system: NSAIDs-induced mitochondrial oxidative stress; assay: Mitochondrial oxidative stress in gastric mucosa (protein carbonyl, lipid peroxidation, total thiol); type: in vivo, rats; settings: NSAIDs (indomethcin, diclofenac)-induced; pretreatment
Protocol: Commercially available kit (Biochain) was used for the isolation of mitochondria from gastric mucosal cells. In brief, scrapped gastric mucosa was finely minced on ice in a petridish containing mitochondria extraction buffer. Ultra-Turrax T-25 homogenizer was used to homogenize the cells. To remove nuclei and unbroken cells the homogenate was first centrifuged at 800×g for 10 min and then finally subjected to 12000×g for 15 min to get the mitochondrial fraction.
Mitochondrial oxidative stress was performed earlier through measurement protein carbonyl formation, lipid peroxidation and measurement of total thiol content (Pal, C; et al. Free Radic Biol Med, 49(2), 258-267; 2010, Maity, P.; et al. J. Biol. Chem. 284:3058-3068; 2009, Maity, P.; et al. J. Biol. Chem. 283:14391-14401; 2008, Maity, P.; et al. J. Pineal Res. 46:314-323; 2009).
Mitochondrial oxidative stress was studied earlier through the measurement of mitochondrial total thiol depletion, lipid peroxidation and protein carbonyl formation. In brief, thiol content was measured by its reaction with 5-5′-dithionitrobenzoic acid (DTNB) to yield the yellow chromophore of TNB (thionitrobenzoic acid), which was measured at 412 nm Mitochondrial lipid peroxidation was assayed by adding 1 ml of the mitochondrial fraction in 0.9% normal saline to 2 ml of TBA-TCA mixture (0.375% w/v and 15% w/v, respectively) in 0.25 N HCl and was mixed and boiled for 15 min which was then cooled and after centrifugation, the absorbance of the supernatant was read at 535 nm. Tetraethoxypropane was used as standard. Protein carbonyl was measured by following the standard colorimetric method that measures the binding of dinitrophenylhydrazine (DNP) to the carbonyl group and was quantified by taking the absorbance at 362 nm.

O=C(NCCc1c[nH]c2ccc(O)cc12)c1cc(O)c(O)c(O)c1 [Compound 3a, 3,4,5-trihydroxy-N-(2-(5-hydroxy-1H-indol-3-yl)ethyl)benzamide]
mitochondrial superoxides (mitoSOX) [1]: restores all the NSAIDs-induced mitochondrial dysfuctions
indomethacin-induced apoptosis (TUNEL) in vivo [2]: prevents the indomethcin-induced apoptosis
gastroprotective effect in ethanol induced gastropathy [3]: protects the gastric mucosa
Gastric mucosal damage (ulcer index) ([4]; compound 6.9 mg kg^−1 intraperitoneally before indomethacin 48 mg kg^−1 oral, rats): 30 ± 3
protection, indomethacin-induced gastric mucosal injury ([4]; dose 1 mg kg^−1 i.p.): 17%
protection, indomethacin-induced gastric mucosal injury ([4]; dose 3 mg kg^−1 i.p.): 28%
protection, indomethacin-induced gastric mucosal injury ([4]; dose 5 mg kg^−1 i.p.): 45%
protection, indomethacin-induced gastric mucosal injury ([4]; dose 10 mg kg^−1 i.p.): 62%
protection, indomethacin-induced gastric mucosal injury ([4]; dose 20 mg kg^−1 i.p.): 82%
protection, indomethacin-induced gastric mucosal injury ([4]; dose 50 mg kg^−1 i.p.): 94%
ED50, prevention of indomethacin-induced gastric mucosal damage ([4]; intraperitoneal, rats, listed as SEGA (3a)): 6.9 mg/kg
histology of gastric mucosal tissue (haematoxylin-eosin) ([4]; pretreated indomethacin-treated rats): could protect gastric mucosa
intramitochondrial iron chelation (Phen Green SK) [5]: chelates the intramitochondrial iron
depletion of mitochondrial thiol [6]: protects
oxidation of mitochondrial protein (protein carbonyl formation) [6]: protects
peroxidation of mitochondrial lipid [6]: protects
